pIC50, pKi: −log10 of the molar value.
How the values were obtained:
GC3/MTK- = assay: Compound is screened for cell growth inhibition against GC3/MTK-cell line, a human thymidine kinase deficient adenocarcinoma line; type: functional, cell-based
Thymidylate synthase [1] = target: Thymidylate synthase (Homo sapiens, UniProt P04818); assay: Inhibitory effect against recombinant human thymidylate synthase
[2] = Compound is evaluated for thymidine shift. […]; type: functional
L1210 = assay: Compound is screened for cell growth inhibition against L1210 murine leukemia tumor cell line; type: functional, cell-based; details: Mus musculus
CCRF-CEM = assay: Compound is screened for cell growth inhibition against CCRF-CEM cell line, a human lymphoblastic leukemia line of T-cell origin; type: functional, cell-based
Thymidylate synthase [3] = target: Thymidylate synthase (Escherichia coli, UniProt C3SWJ7); assay: Inhibitory effect against Escherichia coli thymidylate synthase
Sequence of Thymidylate synthase (Escherichia coli, UniProt C3SWJ7) (C3SWJ7 whole entry): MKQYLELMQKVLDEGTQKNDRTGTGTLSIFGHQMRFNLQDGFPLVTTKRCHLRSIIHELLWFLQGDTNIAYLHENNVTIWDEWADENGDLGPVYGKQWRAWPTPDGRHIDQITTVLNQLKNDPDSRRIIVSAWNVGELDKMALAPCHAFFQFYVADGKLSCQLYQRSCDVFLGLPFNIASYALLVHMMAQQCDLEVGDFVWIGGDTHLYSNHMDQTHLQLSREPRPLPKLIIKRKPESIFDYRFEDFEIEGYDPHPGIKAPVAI

Sequence of Thymidylate synthase (Homo sapiens, UniProt P04818) (P04818 whole entry): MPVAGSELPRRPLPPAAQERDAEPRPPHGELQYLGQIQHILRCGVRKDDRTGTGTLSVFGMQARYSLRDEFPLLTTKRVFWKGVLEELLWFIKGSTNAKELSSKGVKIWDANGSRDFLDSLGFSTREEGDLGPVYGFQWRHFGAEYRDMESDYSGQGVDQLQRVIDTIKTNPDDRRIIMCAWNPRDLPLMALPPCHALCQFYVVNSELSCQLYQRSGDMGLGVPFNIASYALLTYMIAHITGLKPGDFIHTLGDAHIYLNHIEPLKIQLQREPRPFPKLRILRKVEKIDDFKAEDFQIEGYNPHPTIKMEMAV

Row | Structure (SMILES) | pIC50 (GC3/MTK-) | pKi (Thymidylate synthase [1]) | Thymidine shift [2] | pIC50 (L1210) | pIC50 (CCRF-CEM) | pKi (Thymidylate synthase [3])
1 | Cc1cc(CN(C)c2ccc3c4c(ccc(C)c24)C(N)=N3)ccn1 | 6.22 | 8.40 | 4.1 | 6.77 | 6.35 | 
2 | CNC1=Nc2ccc(N(C)Cc3ccnnc3)c3c(C)ccc1c23 | 5.00 | 7.52 | 2.6 | 6.10 | 5.43 | 
3 | CN(Cc1ccnc(CO)c1)c1ccc2c3c(cccc13)C(N)=N2 | 4.96 | 7.74 | 6.9 | 5.89 | 5.52 | 
4 | CN(Cc1ccnnc1)c1ccc2c3c(cccc13)C(N)=N2 | 5.30 | 7.82 | 7.7 | 6.05 | 5.40 | 4.74
5 | Cc1ccc2c3c(ccc(N(C)Cc4ccnnc4)c13)N=C2N | 5.68 | 8.00 | 12.1 | 6.35 | 6.11 | 
6 | CN(Cc1ccncc1)c1ccc2c3c(cccc13)C(N)=N2 | 5.32 | 7.77 | 4.9 | 7.02 | 5.62 | 5.18
7 | CNC1=Nc2ccc(N(C)Cc3ccncc3)c3cccc1c23 | 4.64 | 6.57 | 2.6 | 5.72 | 5.29 | 
8 | Cc1ccc2c3c(ccc(N(C)Cc4ccncc4)c13)N=C2N | 5.96 | 8.22 | 2.3 | 6.80 | 6.36 | 6.22
9 | CN(Cc1ccc(S(=O)(=O)N2CCOCC2)cc1)c1ccc2c3c(cccc13)C(N)=N2 [METESIND] |  | 7.82 |  |  |  | 5.27
10 | CNC1=Nc2ccc(N(C)Cc3ccnnc3)c3cccc1c23 | 4.59 | 6.51 | 1.9 | 5.16 | 5.05 | 
11 | CN(Cc1ccnc(C(F)(F)F)c1)c1ccc2c3c(cccc13)C(N)=N2 | 4.92 | 7.35 | 4.2 | 5.68 | 5.23 | 
12 | CCc1cc(CN(C)c2ccc3c4c(cccc24)C(N)=N3)ccn1 | 5.19 | 7.60 | 2.8 | 6.00 | 5.52 | 
13 | CNC1=Nc2ccc(N(C)Cc3ccncc3)c3c(C)ccc1c23 | 5.44 | 7.85 | 4.1 | 6.68 | 5.96 | 
14 | CN(Cc1ccc(S(=O)(=O)N2CCOCC2)cc1)c1ccc2c3c(cccc13)C(=N)N2 |  |  | 6.7 |  |  | 
15 | CN(Cc1ccnc(Sc2ccccc2)c1)c1ccc2c3c(cccc13)C(N)=N2 | 4.94 | 7.28 | 1.8 | 6.18 | 5.70 | 
16 | Cc1cc(CN(C)c2ccc3c4c(cccc24)C(N)=N3)ccn1 | 5.10 | 7.85 | 2.1 | 5.80 | 5.64 | 5.74

Source: ChEMBL document CHEMBL1128577, “Synthesis and biological evaluation of novel 2,6-diaminobenz[cd]indole inhibitors of thymidylate synthase using the protein structure as a guide” (J Med Chem, 1995)
